In patent US12440500B2, “Phytoecdysones and the derivatives thereof for use in the treatment of neuromuscular diseases” (BIOPHYTIS, priority 2019, dated 2025):

Columns and labels:
Assay type in all cases: in vivo, mouse
[1] = tested on: SMA mice (FVB/NRj-SmnΔ7/Δ7 huSMN2+/+ 2 copies); assay: Phenotypic analysis: weight and survival of severe SMA mice under daily gavage
Source text: A severe SMA mouse model was used on an FVB/NRj gene pool, characterized by the invalidation of the exon 7 of the murine gene Smn and expressing 2 copies of the human transgene SMN2 (Smn^Δ7/Δ7; huSMN2^+/+) (Hsieh et al., 2000). The mice resulting from these crossings having the “FVB/NRj-Smn^Δ7/Δ7 huSMN2^+/+ 2 copies” genotype are described as “SMA”. These mice are characterized by progressive growth failure which is observed starting from 4 days post-natal and have a degeneration of about 50% of the motor neurons of the ventral horn of the spinal cord at the end of life, progressive muscular atrophy and an average lifespan of about 12 days (Hsieh et al., 2000). The mice having the “FVB/NRj-Smn^+/Δ7 huSMN2^++ 2 copies” genotype have no particular phenotype and are used as so-called “control” mice. The mice were treated via daily gavage of a dose of 50 mg/kg, either with the molecule BIO101 complexed to a vehicle (cyclodextrin in the present case), or with the vehicle alone (VH). The weight and the survival were analyzed on a daily basis until P11. In the rest of the description, n corresponds to the size of the sample and p corresponds to the “p value” used to quantify the statistical significance of a result.
The same type II murine model was used to characterize the phenotypic effects of the molecule BIO103 in a severe SMA model. The mice were treated via daily gavage of a dose of 50 mg/kg, either with the molecule BIO103 complexed with the vehicle (cyclodextrin in the present case), or with the vehicle alone (VH). The weight and the survival were analyzed on a daily basis until P11.

[2] = tested on: AKT; assay: Western blot, phosphorylation of AKT in SMA mice
Description: (§1) The frozen muscle Plantaris was homogenized in extraction buffer by mechanical grinding. The supernatant containing the protein extract was sampled, then the protein extracts were then dosed according to the Lowry protein assay. An electrophoresis on SDS-PAGE gel was conducted, then the separated proteins were transferred onto membranes. The primary antibodies used were the following: mouse monoclonal anti-SMN (1:5,000), rabbit polyclonal anti-Ser 473 phospho-AKT (1:1000), rabbit polyclonal anti-AKT ( 1/100), rabbit monoclonal anti phospho-ERK ½ (1:500), anti-MAP Kinase ½ (ERK ½) (1:1000). […] The optical density of each specific band was quantified with image processing software by subtracting the background and by normalizing with the optical density of the β-actin bands. For the controls treated with the vehicle, the values obtained were determined at 1 and the values of the other groups were normalized in relation to these controls and expresses as a relative quantity. […] The quantitative values of pAKT at the Plantaris represent 3 mice per group treated with the vehicle (control or SMA) and 4 mice treated with BIO101. The quantitative values of pERK at the Plantaris represent at least 4 mice per group. The quantitative values of SMN represent n=2. […]

[3] = tested on: ERK; assay: Western blot, phosphorylation of ERK in SMA mice
[4] = tested on: SMN protein; assay: Western blot, level of expression of the SMN protein in SMA mice
Description: as §1

[5] = tested on: neuromuscular junctions of muscles soleus, plantaris and tibialis of SMA mice; assay: Morphological study of neuromuscular junction maturation (immunofluorescence)
[6] = tested on: SMA mice; assay: Grip test (muscular fatigability)
Description: Phenotypic analyses of type 2 severe SMA mice treated or not starting from P0 with BIO101 were conducted. Longitudinally every two days, a test was conducted of the motor capacities of the mice from P5 to P9. The inventors evaluated the spontaneous displacement capacities by the open-field test, as well as the muscular fatigability by grip test, such as described hereinabove (Biondi et al., 2008; Branchu et al., 2013; Chali et al., 2016).
Indeed, the number of squares that they are able to cross is 10 at P5, 6 at P7 and 8 at P9 versus 17 at P5, 12 at P7 and 24 at P9 in the group of healthy control mice (with p<0.01, p<0.0001 and p<0.001 respectively). […] At P9, this difference is not significant but the treatment with BIO101 tends to have a beneficial effect with mice that are able to cross 11 squares in the group of SMA mice BIO101 in relation to 8 squares in the SMA Vehicle group, p=ns). In order to evaluate muscular fatigability, the gripping force of the hind feet of the mice was tested from P5 to P9 (grip test). The mice are suspended via their hind feet from a thin metal rod suspended in the air, horizontally. The time spent hanging on is recorded. Each mouse was subjected to five successive attempts with a rest period of one minute between two tests. Only the best test was retained for the evaluation of the muscular functions.

[7] = muscle Plantaris, SMA mice treated P0 to P11
[8] = spinal cord, SMA mice treated daily for 11 days

CC(C)(O)CC[C@@H](O)[C@](C)(O)[C@H]1CC[C@@]2(O)C3=CC(=O)[C@@H]4C[C@@H](O)[C@@H](O)C[C@]4(C)[C@H]3CC[C@]12C [BIO101, 20-hydroxyecdysone]
pre-P11 mortality ([1]; 50 mg/kg daily gavage P0 to P11, versus vehicle, p<0.05): significantly reduces | loss of weight of the animals ([1]; 50 mg/kg daily gavage from birth to P11, versus vehicle): significantly limit | phosphorylation of AKT (pAKT) [2, 7]: very substantially increasing | level of pAKT [2, 8]: increasing | level of phosphorylation of ERK (pERK) [3, 7]: greatly decreased | level of pERK [3, 8]: decreasing | level of expression of SMN [4, 7]: no modification | level of SMN ([4]; spinal cord, SMA mice treated for 11 days): does not allow for the restoration | percentage of neuromuscular junctions of the perforated type ([5]; Soleus, treated daily from birth to P10, p<0.05 versus vehicle): 26.5% | percentage of neuromuscular junctions of the perforated type ([5]; Tibialis, treated daily from birth to P10, p<0.05 versus vehicle): 45.7% | percentage of immature plates ([5]; all the muscles tested, treated daily from birth to P10): decrease | percentage of neuromuscular junctions of the perforated type ([5]; muscle plantaris, treated daily from birth to P10, p=ns versus vehicle): 16.3% | hanging time (grip test) ([6]; P5, SMA mice (vehicle 0.2), p<0.05): 2.3 s | hanging time (grip test) ([6]; P7, SMA mice (vehicle 6.2), p=ns): 12.2 s | hanging time (grip test) ([6]; P9, SMA mice (vehicle 5.6), p<0.01): 20.9 s
